# Source: patent US20020042393A1, “Excipient” (priority 1998, published 2002)
# Key:
# Assay type in all cases: physicochemical
# [1] = Water content (Karl Fisher) of tablets before and after storage; conditions: tablets compressed at 500 kg/cm^2; 0 day; listed as B
# Procedure: Determined as a value obtained by measuring about 0.1 g of trehalose and determining its water content by the Karl Fisher method.
# One hundred grams of commercial “Trehaose” (available from Hayashibara Biochemical Laboratories, Inc.) was dissolved in water to a concentration of about 35 wt %, and the resulting solution was concentrated under reduced pressure with heating at 60° C. so as to have a concentration of about 75 wt %, and allowed to stand at room temperature to precipitate crystals, which were washed with 50 ml of water. Glucose was removed by carrying out the above purification procedure once or twice, to increase the trehalose purity. Trehalose A was obtained by carrying out the purification procedure twice to obtain crystals, drying the crystals, grinding the dried crystals with a bantam mill (number of revolutions 15,000 rpm, feed rate 5 kg/hr, and screen opening 2.0 mmφ), and then sifting the ground crystals through a […]. Trehalose B was obtained by carrying out the purification procedure once to obtain crystals, drying the crystals, grinding the dried crystals with a bantam mill (number of revolutions 10,000 rpm, feed rate 5 kg/hr, and screen opening 2.00 mmφ), and then sifting the ground crystals through a 350-μm screen. Trehalose C was obtained by carrying out the purification procedure once to obtain crystals, drying the crystals, grinding the dried crystals with a bantam mill (number of revolutions 8,000 rpm, feed rate 5 kg/hr, and screen opening 2.0 mmφ), and then sifting the ground crystals through a 350-μm screen. […] Each of trehaloses A to C was compressed into tablets at a compression pressure of 500 kg/cm^2, and the tablet hardness immediately after the compression and the tablet hardness after standing for 3 days in an atmosphere of 40° C. and 75% RH after the compression were compared.
# “Trehaose” (available from Hayashibara Bioscience Laboratories Co., Ltd.) was purified once by the method described in Example 1 to obtain crystals, which were dried, ground with a bantam mill (number of revolutions 12,000 rpm, feed rate 5 kg/hr, and screen opening 2.0 mmφ) and then dried at 105° C. for 4 hours to obtain trehalose anhydrous crystals. These crystals were compressed into tablets at a compression pressure of 500 kg/cm^2, and the tablet hardnesses of the tablets were compared in the same manner as in Example 1.
# Apparent specific volume = conditions: excipient powder; listed as B
# From the text: The whole of 10 g of trehalose powder was gently poured into a 100-ml measuring cylinder without making an impact (in this case, a cylinder having an outside diameter smaller than the inside diameter of the measuring cylinder was placed in the measuring cylinder, and it was slowly lifted after pouring the trehalose), and the apparent specific volume was expressed as a value obtained by dividing the read volume by the weight of the trehalose.
# [2] = Average particle size (sieving, 50% cumulative weight); conditions: excipient powder; listed as B
# Procedure: Five grams of trehalose was sifted through screens having screen openings of 500 μm, 300 μm and 250 μm, respectively, and then sifted with Air Jet Sieve by using screens having screen openings of 150 μm, 75 μm, 45 μm, 38 μm and 32 μm, respectively. The oversize particle weight percentage [%] was calculated for each screen, and the average particle size is expressed as a particle size corresponding to a cumulative weight percentage of 50%.
# [3] = Disintegration time according to Japanese Pharmacopoeia; conditions: listed as B
# Procedure: The disintegration time of each of six molded products was measured by the use of ion-exchanged water according to the disintegration time measuring method prescribed in the 13th revised Japanese Pharmacopoeia, and the average of measured values was calculated.
# [4] = Colour change of molded product stored at 40° C. for 3 months; conditions: Example 9 process molded product in glass bottle
# Procedure: This molded product and the rapidly disintegrable molded product obtained in Example 9 by using the trehalose B were placed in separate glass bottles, respectively, and stored at 40° C. for 3 months.
# [5] = Proportion of particles of 75 μm or more (Air Jet Sieve); conditions: excipient powder; listed as B
# Procedure: Five grams of trehalose was weighed onto a screen having a screen opening of 75 μm, and sifted with Air Jet Sieve (Model 200LS, mfd. by ALPINE) for 5 minutes, and the weight percentage of the weight of particles remaining on the screen based on the total weight of particles was calculated as the proportion of particles of 75 μm or more.
# [6] = Whiteness of powder (color analyzer); conditions: excipient powder; listed as B
# Procedure: (§1) For powder of trehalose or a pharmaceutical composition containing trehalose, values of L, a and b were measured with a color analyzer (TC-1800MKII, mfd. by Tokyo Denshoku Co., Ltd.), and the whiteness of the trehalose or pharmaceutical composition was calculated by the following equation: […]
# [7] = Angle of repose (Sugiwara's instrument); conditions: excipient powder; listed as B
# From the text: Measured by means of a Sugiwara's instrument for measuring angle of repose (Yakuzaigaku 27, p. 260, 1965).
# [8] = Tablet hardness (Schleuniger hardness meter); conditions: listed as B
# [9] = Change in whiteness of excipient mixed with drug at 40° C. and 75% RH (reactivity); conditions: listed as B
# Procedure: as §1
# One gram of each of the trehaloses obtained in Example 1 and 1 g of isoniazid were mixed and then allowed to stand in an atmosphere of 40° C. and 75% RH, and the change in whiteness of the trehalose was observed. On the other hand, 1 g of each of the trehaloses obtained in Example 1 and 1 g of aminophyline were mixed and then allowed to stand in an atmosphere of 40° C. and 75% RH, and the change in whiteness of the trehalose was observed.
# One gram of 100-mesh lactose (available from De Melkindustrie Veghel bv) or 1 g of Mannit S (available from Tohwa Kasei Co., Ltd.) and 1 g of aminophyline were mixed and then allowed to stand in an atmosphere of 40° C. and 75% RH, and the change in whiteness of the lactose or Mannit S was observed.
# As a starting material. […]
# [10] = Example 10: as Example 9 but molded at 60 kg/cm^2
compound,measurement,setting,value
"OC[C@H]1O[C@H](O[C@H]2O[C@H](CO)[C@@H](O)[C@H](O)[C@H]2O)[C@H](O)[C@@H](O)[C@@H]1O [Trehalose B, trehalose]",Water content,[1],9.8%
same,Apparent specific volume,Apparent specific volume,2.2 cm^3/g
same,Average particle size,[2],72 μm
same,Disintegration time according to Japanese Pharmacopoeia,"[3]; Example 8: molded product of trehalose only, 30 kg/cm^2",12 s
same,Disintegration time according to Japanese Pharmacopoeia,[3]; [10],45 s
same,Disintegration time according to Japanese Pharmacopoeia,"[3]; process of Example 9: 950 g excipient + 50 g phenylpropanolamine hydrochloride, 30 kg/cm^2",14 s
same,Change in color of molded product,[4],somewhat yellowed
same,Proportion of particles of 75 μm or more,[5],46%
same,Whiteness,[6],97%
same,Angle of repose,[7],42 °
same,Tablet hardness,"[8]; Example 8: molded product of trehalose only, molded at 30 kg/cm^2, dried overnight at 40° C.",6.6 kg
same,Tablet hardness,[8]; [10],9.4 kg
same,Tablet hardness,"[8]; process of Example 9: 950 g excipient + 50 g phenylpropanolamine hydrochloride, molded at 30 kg/cm^2",6.5 kg
same,Tablet hardness,"[8]; tablets compressed at 500 kg/cm^2, 0 day (immediately after compression)",2.5 kgf
same,Tablet hardness,"[8]; tablets compressed at 500 kg/cm^2, 3 days at 40° C. and 75% RH",2.4 kgf
same,Whiteness,"[9]; 1 g excipient + 1 g aminophyline, 0 day",99%
same,Whiteness,"[9]; 1 g excipient + 1 g aminophyline, 40° C. and 75% RH, 1 month",97%
same,Whiteness,"[9]; 1 g excipient + 1 g isoniazid, 0 day",98%
same,Whiteness,"[9]; 1 g excipient + 1 g isoniazid, 40° C. and 75% RH, 1 month",96%
